“Also recorded” adds a separate entry of the source. Like-named read-outs stand apart in the source and are kept apart here.
What was measured:
[1] = Plasma concentrations in C57BL/6 mice (LC-MS/MS); format: in vivo; details: for Drug plasma concentrations: all dose levels
Procedure: (§1) C57BL/6 mice were dosed with a compound of Formula I in a gel composition by subcutaneous injection twice daily for 2 days. Plasma concentrations of a compound of Formula I were measured by LC-MS/MS at select time points following doses 3 and 4. Following drug administration, plasma levels were elevated in a dose dependent manner reaching 15 ug/ml 3 hours after dose 3 at 45 mg/kg/dose. […] Maximal drug plasma levels reached greater than 30 ug/ml 2 hours following dose 4 at 45 mg/kg/dose and dropped to 13 ug/ml by 4 hours post dosing. […] Prothrombin (PT) times were measured at 0 (predose), 2, 4, and 18 hours after the 4th dose administration.

[2] = Animal PK studies, subcutaneous, rat; details: in vivo, sc, subcutaneous administration, read-out: terminal half-life (t1/2) (converted)
[3] = Animal PK studies, subcutaneous, monkey; details: in vivo, sc, subcutaneous administration, read-out: terminal half-life (t1/2)
[4] = Animal PK studies, subcutaneous bioavailability across species; format: in vivo; details: rat, dog, monkey, baboon, plasma, sc; administered subcutaneously in a solution; rats, dogs, monkeys, and baboons
[5] = Pharmacokinetics after intravenous and subcutaneous administration in cynomolgus monkeys; format: in vivo; details: for AUC(0-t): read-out: AUC 0-48
Procedure: A study was performed in cynomolgus monkeys with the compound of Formula I to provide information on its pharmacokinetics following intravenous and subcutaneous administration and to determine its subcutaneous bioavailability. The test compound was administered intravenously in a solution (1.76 mg/mL) composition and subcutaneously in a gel composition (107 mg/mL).

[6] = Animal PK studies, subcutaneous, dog; format: in vivo; details: plasma, sc
Procedure: In dogs, the time to reach maximum plasma concentrations (Tmax) following subcutaneous injection of a compound of Formula I was 0.5 hours.

[7] = test system: FVIIa-induced IL-8 response in MDA-MB-231 human breast cancer cells; assay: FVIIa-induced IL-8 response in MDA-MB-231 human breast cancer cells; format: cell-based; details: 1 μM added to the medium; MDA-MB-231 cells incubated with FVIIa
Text: Secretion of the chemokine IL-8 increased to over 3-fold of baseline.

[8] = test system: Lewis lung carcinoma tumor; assay: Lewis lung carcinoma tumor growth in C57BL mice; format: in vivo; details: for tumor volume compared to the control: gel formulation SC, 6, 9, 13, and 15 days after start of dosing
Procedure: In this example, the compound of Formula I was administered subcutaneously starting 4 days after tumor cell implantation in the mice (the two different dosing schedules are described in FIG. 2). […] As a result, the compound of Formula I inhibits the growth of tumor cells.
In a follow-up tumor suppression study, the compound of Formula I reduced Lewis lung carcinoma tumor growth in C57BL mice by approximately 50% when given twice daily at subcutaneous doses 22.5, 45, and 90 mg/kg (FIG. 3).
The compound of Formula I was administered in a gel formulation subcutaneously starting 4 days after tumor cell implantation. Tumor volume in the control experiment continued to increase from about 100 mm^3 at 6 days to above 400 mm^3 after 13 days and above 500 mm^3 after 15 days after start of dosing.

[9] = Toxicology study, 28 or 29 days subcutaneous, cynomolgus monkeys; format: in vivo; details: for NOAEL: sc
Procedure: Cynomolgus monkeys were administered a gel formulation of a compound of Formula I twice daily by subcutaneous injection for 28 or 29 consecutive days at a total daily dosage of 0 (vehicle), 3, 12, or 36 mg/kg/day (HED=0.96, 3.84, and 11.5 mg/kg/day, respectively).

[10] = Animal PK studies, subcutaneous, baboon; format: in vivo; details: plasma, sc
Prothrombin (PT) time = assay: Prothrombin time changes in C57BL/6 mice; format: in vivo; details: 2 hours following the 4th dose, 45 mg/kg/dose, gel SC twice daily
Procedure: as §1

B16F10 melanoma cells = assay: Lung colonization by B16F10 melanoma cells in mice; format: in vivo; details: 1.5 h before and 4.5 h and 24 h after tumor cell inoculation, compared to control vehicle
Procedure: In this experiment, the compound of Formula I was administered subcutaneously 1.5 h before tumor cell inoculation, and then 4.5 h and 24 h after tumor cell inoculation. In the absence of the compound of Formula I (i.e., the vehicle alone), a substantial number of colonies formed in the majority of the inoculated mice. […] As a result, in some embodiments, the compound of Formula I inhibit the metastasis of tumor cells.
The compound of Formula I (3×50 mg/kg; 3×100 mg/kg) and a control vehicle were administered subcutaneously 1.5 hours before tumor cell inoculation and then at 4.5 hours and 24 hours after tumor cell inoculation.

[11] = cynomolgus monkey, plasma, sc, Subcutaneous Gel, 10.7 mg/kg, n = 3
[12] = cynomolgus monkey, plasma, Intravenous Solution, 1.76 mg/kg, n = 4
[13] = subcutaneous administration, read-out: terminal half-life (t1/2) (converted)

N=C(N)c1ccc2nc(-c3cc(CC(=O)N[C@@H](CC(=O)O)C(=O)O)cc(-c4cc(S(N)(=O)=O)ccc4O)c3O)[nH]c2c1 [compound of Formula I]
Drug plasma concentrations ([1]; 6 hours after dose 3): had dropped significantly | Drug plasma concentrations ([1]; 18 hours following dose 4): at or near baseline | Drug plasma concentration ([1]; gel SC twice daily, 2 hours following dose 4 at 22.5 mg/kg/dose): 11000 ng/mL | Maximal drug plasma level ([1]; gel SC twice daily, 2 hours following dose 4 at 45 mg/kg/dose): greater than 30 ug/ml | plasma level ([1]; gel SC twice daily, 3 hours after dose 3 at 45 mg/kg/dose): 15000 ng/mL | Drug plasma concentration ([1]; gel SC twice daily, 4 hours following dose 4 at 22.5 mg/kg/dose): stayed elevated | drug plasma level ([1]; gel SC twice daily, 4 hours post dose 4 at 45 mg/kg/dose): 13000 ng/mL | half-life [2]: 2.67 h | half-life [3]: 5.4 to 8.14 h | bioavailability [4]: 95 to 124% | subcutaneous Cmax as percent of the Cmax observed following intravenous dose ([5]; 10.7 mg/kg subcutaneous vs 1.76 mg/kg intravenous): 74% | half-life ([5]; cynomolgus monkey, plasma, iv, 1.76 mg/kg, Intravenous Solution, 1.76 mg/kg, n = 4, read-out: t1/2 α (converted)): 0.162 h | half-life ([5]; cynomolgus monkey, plasma, iv, 1.76 mg/kg, Intravenous Solution, 1.76 mg/kg, n = 4, read-out: t1/2 β (converted)): 2.19 h | half-life ([5]; cynomolgus monkey, plasma, iv, 1.76 mg/kg, Intravenous Solution, 1.76 mg/kg, n = 4, read-out: t1/2 γ (converted)): 7.07 h | half-life ([5]; cynomolgus monkey, plasma, sc, 10.7 mg/kg, Subcutaneous Gel, 10.7 mg/kg, n = 3, read-out: Terminal t1/2 (converted)): 7.43 h | Cmax ([5]; cynomolgus monkey, plasma, sc, Subcutaneous Gel (107 mg/mL), 10.7 mg/kg, n = 3): 11600 ng/mL | AUC(0-inf) [5, 11]: 172 µg·h/mL | CL/F [5, 11]: 1.07 mL/min/kg | Tmax [5, 11]: 3.33 h | AUC(0-t) [5, 11]: 171 µg·h/mL | bioavailability ([5]; cynomolgus monkey, plasma, sc, Subcutaneous Gel, single 10.7 mg/kg dose, n = 3, estimated, read-out: Bioavailabilty (subcutaneous)): 138 ± 33% | Cmax [5, 12]: 15700 ng/mL | MRT [5, 12]: 5.15 h | clearance [5, 12]: 1.4 mL/min/kg | AUC(0-t) [5, 12]: 21.2 µg·h/mL | Vd ([5]; cynomolgus monkey, plasma, Intravenous Solution, 1.76 mg/kg, n = 4, read-out: Vss): 0.43 L/kg | half-life [6, 13]: 5.68 h | Tmax ([6]; subcutaneous injection, dogs, read-out: time to reach maximum plasma concentrations (Tmax)): 0.5 h | FVIIa-induced IL-8 response [7]: completely abrogated | reduction in tumor volume ([8]; SC starting 4 days after tumor cell implantation, depending on the dosing schedule, p<0.01): ≥ 50% | reduction of Lewis lung carcinoma tumor growth ([8]; follow-up study, twice daily subcutaneous doses 22.5, 45, and 90 mg/kg): approximately 50% | tumor volume compared to the control ([8]; 100 mg/kg bid x4d followed by 60 mg/kg bid, P<0.01): a reduction in the tumor volume | tumor volume compared to the control ([8]; 150 mg/kg bid x4d followed by 90 mg/kg bid, P≦0.01): a reduction in the tumor volume | sternum-bone marrow and spleen findings ([9]; cynomolgus monkey, in vivo): shifts indicative of increased erythropoiesis | kidney medulla finding ([9]; cynomolgus monkey, in vivo, 36 mg/kg/day): minimal to mild widening of the interstitium along the medullary rays | NOAEL ([9]; cynomolgus monkey, in vivo): 3 mg/kg/day | NOAEL ([9]; cynomolgus monkey, in vivo, subcutaneous administration for 28 or 29 consecutive days, read-out: NOAEL as HED): 0.96 mg/kg/day | unscheduled euthanasia ([9]; one female, 36 mg/kg/day group, abnormally high aPTT prior to dosing): euthanized after 3 days of dosing due to severe external hemorrhage | half-life [10, 13]: 7.21 h | Tmax ([10]; subcutaneous injection, baboons, read-out: time to reach maximum plasma concentrations (Tmax)): 2.75 h | maximal change in PT time (Prothrombin (PT) time): 1.8 times baseline | Bl6F10 colonies formed in the lung (B16F10 melanoma cells; 3×50 mg/kg SC, 50 mg/kg): substantially fewer colonies were formed | Bl6F10 colonies formed in the lung (B16F10 melanoma cells; 3×100 mg/kg SC, 100 mg/kg): substantially fewer colonies; also recorded: the number of colonies further dropped

Source: patent US8748468B2, “Manufacture, compositions and uses of coagulation factor VIIa modulator” (Pharmacyclics, Inc., priority 2007, dated 2014)
